Consider five molecules from PubChem BioAssay AID200 (DTP/NCI, 2004).

Structures are written as SMILES. Values joined by “and” are separate entries in the source; they are usually repeats but may differ in a detail not shown here. Equal values may be shown once. Toxic doses and inconclusive results are not listed.

This experiment relates to B6C3F1 mice, B16 melanoma ip, median survival T/C. Briefly: NCI In Vivo Anticancer Drug Screen. Data for tumor model B16 Melanoma (intraperitoneal) in B6C3F1 mice. The following applies: endpoint: median survival time, higher = longer survival. On the procedure: The antitumor activity of compounds was measured in mice bearing transplantable tumors. Survival or tumor size were measured and the results are expressed as the measurement made in the treated group (T) divided by the measurement made in the vehicle treated control group (C). The tumor model used in this assay is B16 Melanoma (intraperitoneal) in B6C3F1 mice

As to `CC[C@@H](C)[C@@H]1NC(=O)C(NC(=O)C(CC(C)C)N(C)C(=O)C2CCCN2C(=O)C(C)O)C(C)OC(=O)C(Cc2ccc(OC)cc2)N(C)C(=O)C2CCCN2C(=O)C(CC(C)C)NC(=O)C(C)C(=O)C(C(C)C)OC(=O)C[C@H]1O` (stereo partly specified), the T/C is 102 % of control (dose: 5.0 micrograms/kg/injection, schedule: Q01DX009 (ip), vehicle: distilled water + alcohol); 111 % of control and 112 % of control (dose: 10.0 micrograms/kg/injection, schedule: Q01DX009 (ip), vehicle: distilled water + alcohol); 120 % of control (dose: 10.0 micrograms/kg/injection, schedule: Q01DX009 (ip), vehicle: other); 120 % of control (dose: 20.0 micrograms/kg/injection, schedule: Q01DX005 (ip), vehicle: other); 105 % of control (dose: 20.0 micrograms/kg/injection, schedule: Q01DX005 (iv), vehicle: other); 111 % of control (dose: 20.0 micrograms/kg/injection, schedule: Q01DX005 (sc), vehicle: other). Further, the T/C reads like this: (dose: 20.0 micrograms/kg/injection, schedule: Q01DX009 (ip), vehicle: distilled water + alcohol) 117 % of control and 123 % of control; (dose: 40.0 micrograms/kg/injection, schedule: Q01DX005 (iv), vehicle: other) 101 % of control and 104 % of control; (dose: 40.0 micrograms/kg/injection, schedule: Q01DX005 (sc), vehicle: other) 108 % of control; (dose: 40.0 micrograms/kg/injection, schedule: Q01DX009 (ip), vehicle: distilled water + alcohol) 124 % of control; (dose: 40.0 micrograms/kg/injection, schedule: Q01DX009 (ip), vehicle: other) 153 % of control; (dose: 40.0 micrograms/kg/injection, schedule: Q03HX008 (ip), vehicle: saline) 124 % of control. The T/C by setting is: (dose: 71.0 micrograms/kg/injection, schedule: Q01DX009 (ip), vehicle: other) 151 % of control; (dose: 80.0 micrograms/kg/injection, schedule: Q01DX005 (ip), vehicle: other) 122 % of control; (dose: 80.0 micrograms/kg/injection, schedule: Q01DX005 (iv), vehicle: other) 112 % of control and 96 % of control; (dose: 80.0 micrograms/kg/injection, schedule: Q01DX005 (oral), vehicle: other) 100 % of control; (dose: 80.0 micrograms/kg/injection, schedule: Q01DX005 (sc), vehicle: other) 113 % of control and 103 % of control; (dose: 80.0 micrograms/kg/injection, schedule: Q01DX009 (ip), vehicle: distilled water + alcohol) 153 % of control. For the same molecule, the T/C is 163 % of control (dose: 80.0 micrograms/kg/injection, schedule: Q01DX009 (ip), vehicle: other); 159 % of control (dose: 106.0 micrograms/kg/injection, schedule: Q01DX009 (ip), vehicle: other); 102 % of control (dose: 160.0 micrograms/kg/injection, schedule: Q01DX001 (iv), vehicle: other); 106 % of control (dose: 160.0 micrograms/kg/injection, schedule: Q01DX001 (sc), vehicle: other); 104 % of control and 106 % of control (dose: 160.0 micrograms/kg/injection, schedule: Q01DX005 (iv), vehicle: other); 119 % of control and 105 % of control (dose: 160.0 micrograms/kg/injection, schedule: Q01DX005 (oral), vehicle: other). Besides, the T/C runs as follows: (dose: 160.0 micrograms/kg/injection, schedule: Q01DX005 (sc), vehicle: other) 110 % of control and 122 % of control; (dose: 160.0 micrograms/kg/injection, schedule: Q01DX009 (ip), vehicle: distilled water + alcohol) 162 % of control and 164 % of control; (dose: 160.0 micrograms/kg/injection, schedule: Q01DX009 (ip), vehicle: other) 163 % of control; (dose: 160.0 micrograms/kg/injection, schedule: Q01DX009 (ip), vehicle: saline) 151 % of control; (dose: 320.0 micrograms/kg/injection, schedule: Q01DX001 (iv), vehicle: other) 99 % of control and 106 % of control; (dose: 320.0 micrograms/kg/injection, schedule: Q01DX001 (oral), vehicle: other) 99 % of control. Moreover, the T/C by setting is: (dose: 320.0 micrograms/kg/injection, schedule: Q01DX001 (sc), vehicle: other) 102 % of control; (dose: 320.0 micrograms/kg/injection, schedule: Q01DX005 (ip), vehicle: other) 123 % of control; (dose: 320.0 micrograms/kg/injection, schedule: Q01DX005 (iv), vehicle: other) 104 % of control and 106 % of control; (dose: 320.0 micrograms/kg/injection, schedule: Q01DX005 (oral), vehicle: other) 104 % of control and 105 % of control; (dose: 320.0 micrograms/kg/injection, schedule: Q01DX005 (sc), vehicle: other) 94 % of control and 105 % of control; (dose: 640.0 micrograms/kg/injection, schedule: Q01DX001 (ip), vehicle: other) 116 % of control. For the same molecule, the T/C is, setting by setting: (dose: 640.0 micrograms/kg/injection, schedule: Q01DX001 (iv), vehicle: other) 102 % of control and 108 % of control; (dose: 640.0 micrograms/kg/injection, schedule: Q01DX001 (oral), vehicle: other) 99 % of control; (dose: 640.0 micrograms/kg/injection, schedule: Q01DX001 (sc), vehicle: other) 117 % of control and 102 % of control; (dose: 640.0 micrograms/kg/injection, schedule: Q01DX005 (oral), vehicle: other) 100 % of control and 107 % of control; (dose: 1280.0 micrograms/kg/injection, schedule: Q01DX001 (ip), vehicle: other) 124 % of control; (dose: 1280.0 micrograms/kg/injection, schedule: Q01DX001 (ip), vehicle: saline) 117 % of control. In addition, the T/C reads like this: (dose: 1280.0 micrograms/kg/injection, schedule: Q01DX001 (iv), vehicle: other) 118 % of control and 106 % of control; (dose: 1280.0 micrograms/kg/injection, schedule: Q01DX001 (oral), vehicle: other) 103 % of control and 108 % of control; (dose: 1280.0 micrograms/kg/injection, schedule: Q01DX001 (sc), vehicle: other) 118 % of control and 100 % of control; (dose: 1280.0 micrograms/kg/injection, schedule: Q01DX005 (oral), vehicle: other) 97 % of control and 102 % of control; (dose: 2560.0 micrograms/kg/injection, schedule: Q01DX001 (oral), vehicle: other) 114 % of control and 100 % of control; (dose: 2560.0 micrograms/kg/injection, schedule: Q01DX001 (sc), vehicle: other) 112 % of control. The T/C reads like this: (dose: 2560.0 micrograms/kg/injection, schedule: Q01DX005 (oral), vehicle: other) 99 % of control and 100 % of control; (dose: 5120.0 micrograms/kg/injection, schedule: Q01DX001 (oral), vehicle: other) 101 % of control and 105 % of control; (dose: 10240.0 micrograms/kg/injection, schedule: Q01DX001 (oral), vehicle: other) 105 % of control.
Regarding `N#CC(C#N)=NNc1ccc2cn[nH]c2c1`, the T/C (dose: 12.5 mg/kg/injection, schedule: Q01DX009 (ip), vehicle: Klucel (hydroxypropylcellulose) (HPC)) was 108 % of control; the T/C (dose: 25.0 mg/kg/injection, schedule: Q01DX009 (ip), vehicle: Klucel (hydroxypropylcellulose) (HPC)) is 100 % of control; the T/C (dose: 50.0 mg/kg/injection, schedule: Q01DX009 (ip), vehicle: Klucel (hydroxypropylcellulose) (HPC)) was 106 % of control; the T/C (dose: 100.0 mg/kg/injection, schedule: Q01DX009 (ip), vehicle: Klucel (hydroxypropylcellulose) (HPC)) was 102 % of control.
In the case of `Cc1c(-c2ccc(-c3ccccc3F)cc2)nc2ccc(F)cc2c1C(=O)O`, the T/C by setting is: (dose: 6.25 mg/kg/injection, schedule: Q01DX009 (ip), vehicle: water) 118 % of control and 102 % of control; (dose: 12.5 mg/kg/injection, schedule: Q01DX009 (ip), vehicle: water) 107 % of control; (dose: 25.0 mg/kg/injection, schedule: Q01DX009 (ip), vehicle: water) 124 % of control.
As to `C=C1C(=O)OC2/C=C(\C)CC(O)/C=C(/CO)CC(OC(=O)/C(C)=C/C)C12` (stereo unspecified), the T/C runs as follows: (dose: 7.5 mg/kg/injection, schedule: Q01DX009 (ip), vehicle: saline + alcohol) 115 % of control; (dose: 7.5 mg/kg/injection, schedule: Q01DX009 (ip), vehicle: saline with Tween-80) 102 % of control; (dose: 15.0 mg/kg/injection, schedule: Q01DX009 (ip), vehicle: saline + alcohol) 123 % of control; (dose: 15.0 mg/kg/injection, schedule: Q01DX009 (ip), vehicle: saline with Tween-80) 103 % of control; (dose: 15.0 mg/kg/injection, schedule: Q01DX009 (ip), vehicle: saline) 98 % of control; (dose: 30.0 mg/kg/injection, schedule: Q01DX009 (ip), vehicle: saline with Tween-80) 97 % of control. Moreover, the T/C reads like this: (dose: 30.0 mg/kg/injection, schedule: Q01DX009 (ip), vehicle: saline) 116 % of control; (dose: 60.0 mg/kg/injection, schedule: Q01DX009 (ip), vehicle: saline + alcohol) 155 % of control; (dose: 60.0 mg/kg/injection, schedule: Q01DX009 (ip), vehicle: saline with Tween-80) 98 % of control; (dose: 60.0 mg/kg/injection, schedule: Q01DX009 (ip), vehicle: saline) 120 % of control.
On to `CCN(CC)CC[n+]1ccc2c(C)c3[nH]c4ccc(O)cc4c3c(C)c2c1`, for which the T/C (dose: 3.12 mg/kg/injection, schedule: Q01DX009 (ip), vehicle: saline) is 175 % of control; the T/C (dose: 6.25 mg/kg/injection, schedule: Q01DX009 (ip), vehicle: saline) was 151 % of control and 171 % of control; the T/C (dose: 6.25 mg/kg/injection, schedule: Q01DX009 (ip), vehicle: suspension in saline) was 151 % of control.
